ChEMBL document CHEMBL5625164, “Design, synthesis, and evaluation of new anti-inflammatory natural products amide derivatives endowed with anti-blood cancer activity towards development of potential multifunctional agents against hematological cancers” (Eur J Med Chem, 2023)

Assays:
[1] = Cytotoxicity against mouse RAW264.7 cells assessed as macrophage viability at 10 uM relative to control; type: toxicity, cell-based; conditions: read-out: Activity
BV-2 [2] = assay: Anti-inflammatory activity against mouse BV-2 cells assessed as inhibition of LPS-induced NO production pretreated for 2 hrs followed stimulated with LPS for 22 hrs by Griess reaction assay; type: functional, cell-based
BV-2 [3] = assay: Anti-inflammatory activity against mouse BV-2 cells assessed as inhibition of LPS-induced NO production at 10 uM pretreated for 2 hrs followed stimulated with LPS for 22 hrs by Griess reaction assay relative to control; type: functional; conditions: time 24 hrs
BV-2 [4] = assay: Anti-inflammatory activity against mouse BV-2 cells assessed as inhibition of LPS-induced PGE2 production pretreated for 2 hrs followed stimulated with LPS for 22 hrs; type: functional, cell-based
BV-2 [5] = assay: Anti-inflammatory activity against mouse BV-2 cells assessed as inhibition of LPS-induced PGE2 production pretreated for 2 hrs followed stimulated with LPS for 22 hrs at 10 uM relative to control; type: functional; conditions: time 24 hrs
BV-2 [6] = assay: Anti-inflammatory activity against mouse BV-2 cells assessed as inhibition of LPS-induced TNFalpha production pretreated for 2 hrs followed stimulated with LPS for 22 hrs; type: functional, cell-based; conditions: time 24.0 hrs
BV-2 [7] = assay: Anti-inflammatory activity against mouse BV-2 cells assessed as inhibition of LPS-induced TNFalpha production pretreated for 2 hrs followed stimulated with LPS for 22 hrs at 10 uM relative to control; type: functional; conditions: time 24 hrs
CCRF-CEM [8] = assay: Anticancer activity against human CCRF-CEM cells assessed as growth inhibition at 10 uM measured after 48 hrs by SRB assay relative to control; type: functional; conditions: read-out: GI
K562 [9] = assay: Anticancer activity against human K562 cells assessed as growth inhibition at 10 uM measured after 48 hrs by SRB assay relative to control; type: functional; conditions: read-out: GI
MOLT-4 [10] = assay: Anticancer activity against human MOLT-4 cells assessed as growth inhibition at 10 uM measured after 48 hrs by SRB assay relative to control; type: functional; conditions: read-out: GI
RPMI-8226 [11] = assay: Anticancer activity against human RPMI-8226 cells assessed as growth inhibition at 10 uM measured after 48 hrs by SRB assay relative to control; type: functional; conditions: read-out: GI
SR [12] = assay: Anticancer activity against human SR cells assessed as growth inhibition at 10 uM measured after 48 hrs by SRB assay relative to control; type: functional; conditions: read-out: GI
CCRF-CEM [13] = assay: Anticancer activity against human CCRF-CEM cells assessed as growth inhibition measured after 48 hrs by SRB assay relative to control; type: functional
HL-60 [14] = assay: Anticancer activity against human HL-60 cells assessed as growth inhibition measured after 48 hrs by SRB assay relative to control; type: functional
K562 [15] = assay: Anticancer activity against human K562 cells assessed as growth inhibition measured after 48 hrs by SRB assay relative to control; type: functional
MOLT-4 [16] = assay: Anticancer activity against human MOLT-4 cells assessed as growth inhibition measured after 48 hrs by SRB assay relative to control; type: functional
RPMI-8226 [17] = assay: Anticancer activity against human RPMI-8226 cells assessed as growth inhibition measured after 48 hrs by SRB assay relative to control; type: functional
SR [18] = assay: Anticancer activity against human SR cells assessed as growth inhibition measured after 48 hrs by SRB assay relative to control; type: functional
HL-60 [19] = assay: Induction of cell cycle arrest in human HL-60 cells assessed as accumulation of cells at SubG1 phase at 10 uM measured after 24 hrs by propidium iodide staining based flow cytometry (reference value: 5.89%); type: functional
HL-60 [20] = assay: Induction of cell cycle arrest in human HL-60 cells assessed as accumulation of cells at G0/G1 phase at 10 uM measured after 24 hrs by propidium iodide staining based flow cytometry (reference value: 66.61%); type: functional
HL-60 [21] = assay: Induction of cell cycle arrest in human HL-60 cells assessed as accumulation of cells at S phase at 10 uM measured after 24 hrs by propidium iodide staining based flow cytometry (reference value: 13.85%); type: functional
HL-60 [22] = assay: Induction of cell cycle arrest in human HL-60 cells assessed as accumulation of cells at G2/M phase at 10 uM measured after 24 hrs by propidium iodide staining based flow cytometry (reference value: 9.01%); type: functional
HL-60 [23] = assay: Induction of cell cycle arrest in human HL-60 cells assessed as accumulation of cells at SubG1 phase at 25 uM measured after 24 hrs by propidium iodide staining based flow cytometry (reference value: 5.89%); type: functional
HL-60 [24] = assay: Induction of cell cycle arrest in human HL-60 cells assessed as accumulation of cells at G0/G1 phase at 25 uM measured after 24 hrs by propidium iodide staining based flow cytometry (reference value: 66.61%); type: functional
HL-60 [25] = assay: Induction of cell cycle arrest in human HL-60 cells assessed as accumulation of cells at S phase at 25 uM measured after 24 hrs by propidium iodide staining based flow cytometry (reference value: 13.85%); type: functional
HL-60 [26] = assay: Induction of cell cycle arrest in human HL-60 cells assessed as accumulation of cells at G2/M phase at 25 uM measured after 24 hrs by propidium iodide staining based flow cytometry (reference value: 9.01%); type: functional
HL-60 [27] = assay: Induction of cell cycle arrest in human HL-60 cells assessed as accumulation of cells at SubG1 phase at 50 uM measured after 24 hrs by propidium iodide staining based flow cytometry (reference value: 5.89%); type: functional
HL-60 [28] = assay: Induction of cell cycle arrest in human HL-60 cells assessed as accumulation of cells at G0/G1 phase at 50 uM measured after 24 hrs by propidium iodide staining based flow cytometry (reference value: 66.61%); type: functional
HL-60 [29] = assay: Induction of cell cycle arrest in human HL-60 cells assessed as accumulation of cells at S phase at 50 uM measured after 24 hrs by propidium iodide staining based flow cytometry (reference value: 13.85%); type: functional
HL-60 [30] = assay: Induction of cell cycle arrest in human HL-60 cells assessed as accumulation of cells at G2/M phase at 50 uM measured after 24 hrs by propidium iodide staining based flow cytometry (reference value: 9.01%); type: functional
HL-60 [31] = assay: Induction of cell cycle arrest in human HL-60 cells assessed as accumulation of cells at SubG1 phase at 10 uM measured after 48 hrs by propidium iodide staining based flow cytometry (reference value: 4.25%); type: functional
HL-60 [32] = assay: Induction of cell cycle arrest in human HL-60 cells assessed as accumulation of cells at G0/G1 phase at 10 uM measured after 48 hrs by propidium iodide staining based flow cytometry (reference value: 60.03%); type: functional
HL-60 [33] = assay: Induction of cell cycle arrest in human HL-60 cells assessed as accumulation of cells at S phase at 10 uM measured after 48 hrs by propidium iodide staining based flow cytometry (reference value: 7.16%); type: functional
HL-60 [34] = assay: Induction of cell cycle arrest in human HL-60 cells assessed as accumulation of cells at G2/M phase at 10 uM measured after 48 hrs by propidium iodide staining based flow cytometry (reference value: 16.61%); type: functional
HL-60 [35] = assay: Induction of cell cycle arrest in human HL-60 cells assessed as accumulation of cells at SubG1 phase at 25 uM measured after 48 hrs by propidium iodide staining based flow cytometry (reference value: 4.25%); type: functional
HL-60 [36] = assay: Induction of cell cycle arrest in human HL-60 cells assessed as accumulation of cells at G0/G1 phase at 25 uM measured after 48 hrs by propidium iodide staining based flow cytometry (reference value: 60.03%); type: functional
HL-60 [37] = assay: Induction of cell cycle arrest in human HL-60 cells assessed as accumulation of cells at S phase at 25 uM measured after 48 hrs by propidium iodide staining based flow cytometry (reference value: 7.16%); type: functional
HL-60 [38] = assay: Induction of cell cycle arrest in human HL-60 cells assessed as accumulation of cells at G2/M phase at 25 uM measured after 48 hrs by propidium iodide staining based flow cytometry (reference value: 16.61%); type: functional
HL-60 [39] = assay: Induction of cell cycle arrest in human HL-60 cells assessed as accumulation of cells at SubG1 phase at 50 uM measured after 48 hrs by propidium iodide staining based flow cytometry (reference value: 4.25%); type: functional
HL-60 [40] = assay: Induction of cell cycle arrest in human HL-60 cells assessed as accumulation of cells at G0/G1 phase at 50 uM measured after 48 hrs by propidium iodide staining based flow cytometry (reference value: 60.03%); type: functional
HL-60 [41] = assay: Induction of cell cycle arrest in human HL-60 cells assessed as accumulation of cells at S phase at 50 uM measured after 48 hrs by propidium iodide staining based flow cytometry (reference value: 7.16%); type: functional
HL-60 [42] = assay: Induction of cell cycle arrest in human HL-60 cells assessed as accumulation of cells at G2/M phase at 50 uM measured after 48 hrs by propidium iodide staining based flow cytometry (reference value: 16.61%); type: functional
HL-60 [43] = assay: Induction of apoptosis in human HL-60 cells assessed as early apoptotic cells measured after 24 hrs by annexin V/propidium iodide staining based FACS assay; type: functional, cell-based; conditions: dose 10-50 µM
HL-60 [44] = assay: Induction of apoptosis in human HL-60 cells assessed as total apoptotic cells measured after 24 hrs by annexin V/propidium iodide staining based FACS assay; type: functional, cell-based; conditions: dose 10-50 µM

With `COc1cc2c(c(OC)c1OC)C(=O)CC(c1cccc(NC(=O)c3ccc(Br)cc3)c1)O2` (racemic) the viability at 10 µM [1] was 106%, the IC50 (BV-2 [2]) was 14700 nM and the inhibition at 10 µM (BV-2 [3]) was 45.2%. The IC50 (BV-2 [4]) was 9100 nM, the inhibition at 10 µM (BV-2 [5]) was 61.1% and the Activity (BV-2 [6]) was “Dose-Dependent Effect”. It also gave an inhibition at 10 µM (BV-2 [7]) of 50%, an inhibition of growth at 10 µM (CCRF-CEM [8]) of 97.1% and an inhibition of growth at 10 µM (K562 [9]) of 94.1%. It also gave an inhibition of growth at 10 µM (MOLT-4 [10]) of 112%, an inhibition of growth at 10 µM (RPMI-8226 [11]) of 105% and an inhibition of growth at 10 µM (SR [12]) of 96.1%. The GI50 (CCRF-CEM [13]) was 2620 nM, the GI50 (HL-60 [14]) was 1640 nM and the GI50 (K562 [15]) was 1420 nM. For the same molecule, the GI50 (MOLT-4 [16]) was 1630 nM, the GI50 (RPMI-8226 [17]) was 1580 nM and the GI50 (SR [18]) was 1340 nM. It also gave an Activity (HL-60 [19]) of 6.15%, an Activity (HL-60 [20]) of 51.19% and an Activity (HL-60 [21]) of 19.25%. For the same molecule, the Activity (HL-60 [22]) was 5.69%, the Activity (HL-60 [23]) was 43.13% and the Activity (HL-60 [24]) was 2.08%. The Activity (HL-60 [25]) was 27.79%, the Activity (HL-60 [26]) was 2.22% and the Activity (HL-60 [27]) was 70.09%. The Activity (HL-60 [28]) was 4.82%, the Activity (HL-60 [29]) was 5.77% and the Activity (HL-60 [30]) was 1.8%. It also gave an Activity (HL-60 [31]) of 8.99%, an Activity (HL-60 [32]) of 33.83% and an Activity (HL-60 [33]) of 12.39%. The Activity (HL-60 [34]) was 26.61%, the Activity (HL-60 [35]) was 74.54% and the Activity (HL-60 [36]) was 5.89%. The Activity (HL-60 [37]) was 1.33%, the Activity (HL-60 [38]) was 10.01% and the Activity (HL-60 [39]) was 90.39%. The Activity (HL-60 [40]) was 3.96%, the Activity (HL-60 [41]) was 1.21% and the Activity (HL-60 [42]) was 1.61%. For the same molecule, the Activity (HL-60 [43]) was “Dose-Dependent Effect” and the Activity (HL-60 [44]) was “Dose-Dependent Effect”.
